Here are results for 13 compounds from patent publication US4179451A, “Novel hydroxy substituted 15-deoxy-5-cis-prostenoic acids and esters” (American Cyanamid Company, priority 1978, dated 1979).

In general, ED50 refers to the midpoint of the dose-response relation.

Like-named read-outs stand apart in the source and are kept apart here.

The test system of assay [1] is basal gastric acid secretion. As to the kind of experiment: Inhibition of basal gastric acid secretion in the Acute Gastric Fistula Rat. It counts as in vivo, Female Sprague-Dawley rats. The conditions noted are these: 1 h, intraduodenal 10 mg./kg., after 60 minutes, read-out: % Inhibition of Total Acid or Output. As for the experimental part: Inhibition of basal gastric acid secretion can be determined by the following procedure. Female Sprague-Dawley rats weighing 140-160 grams are fastened in individual cages for 18-24 hours. The rats are then lightly anesthetized with ether and their front teeth extracted to avoid destruction of the plastic cannula. A midline incision is then made and the stomach and duodenum exposed. A flanged polyvinyl tube is inserted into the fundic portion of the stomach and secured with a purse string suture line using 4-O Mersilene. The rat is then dosed by injection of the compound into the duodenum (1.0 ml. per 100 gram body weight). After dosing, the abdominal wall and skin are closed using metal wound clips. The rat is replaced in a cage containing a longitudinal slit to allow the polyvinyl tube to hang freely. An 8 ml. plastic collecting tube is attached to the flanged cannula and hangs freely below the cage. The first 30 minute sample is discarded designating this time as zero. The collecting tube is attached again and samples removed at the end of 60 and/or 120 minutes. The hourly samples are then transferred to a 15 ml. centrifuge and centrifuged for 5-10 minutes. Total and sediment volume are then recorded with supernatent volume being used as volume of secretion. A 1 ml. or less aliquot is then removed and placed in a 50 ml. beaker containing 10 ml. of distilled water. This sample is then titrated using 0.01 N to Na H to pH 7.0 using a Beckman zeromatic pH meter. Volume, titratable acidity (meq/L) and total acid output (μeq/hour) are recorded. Percent inhibition is determined by comparison with the appropriate control. Groups of three rats are used for preliminary testing, and groups of six rats are used for dose-response evaluations. All compounds are administered in a vehicle consisting of 0.5% methocel, 0.4% tween 80, and saline at a constant volume of 1 ml./100 gram rat. Samples are dispersed by sonification. Percent inhibition is calculated on basis of concurrent vehicle control.
In Table III which follows is given the effect on total acid output after 60 minutes of a 10 mg./kg. intraduodenal dose of representative compounds of this invention.

Assay [2] relates to bronchospasms elicited by 5-hydroxytryptamine. As to the kind of experiment: Bronchodilator Activity (Konzett Assays), 5-hydroxytryptamine. It counts as in vivo, guinea pigs. The conditions noted are these: Cavia porcellus; three logarithmic cumulative intravenous doses; spasmogen 5-hydroxytryptamine; read-out: ED50, Spasmogenic Agent 5-hydroxytryptamine. As to the method: (§1) The compounds of this invention are useful as bronchodilators for the treatment of asthma and chronic bronchitis. Bronchodilator activity is determined in guinea pigs against bronchospasms elicited by intravenous injections of 5-hydroxytryptamine, histamine or acetylcholine by the Konzett procedure. [See J. Lulling, P. Lievens, F. El Sayed and J. Prignot, Arzneimittel-Forschung, 18, 955 (1968).]
(§2) In Table IV which follows bronchodilator activity for representative compounds of this invention against one or more of three spasmogenic agents is expressed as an ED50 determined from the results obtained with three logarithmic cummulative intravenous doses. In this assay, these compounds of this invention provide an effect of longer duration than does natural l-PGE1 or l-PGE2.

The test system of assay [3] is bronchospasms elicited by histamine. As to the kind of experiment: Bronchodilator Activity (Konzett Assays), histamine. It counts as in vivo, guinea pigs. Particulars: Cavia porcellus; three logarithmic cumulative intravenous doses; spasmogen histamine; read-out: ED50, Spasmogenic Agent histamine. As for the experimental part: as §1, §2
Assay [4] relates to bronchospasms elicited by acetylcholine. As to the kind of experiment: Bronchodilator Activity (Konzett Assays), acetylcholine. It counts as in vivo, guinea pigs. Particulars: Cavia porcellus; three logarithmic cumulative intravenous doses; spasmogen acetylcholine; read-out: ED50, Spasmogenic Agent Acetylcholine. As for the experimental part: as §1, §2
Assay [5] deals with mean arterial blood pressure. As to the kind of experiment: Hypotensive Response (normotensive rat). It counts as in vivo, Male Wistar strain rats. The conditions noted are these: anesthetized rat. As to the method:
This procedure is a modification of the techniques described by Pike et al., Prostaglandins, Nobel Symposium 2, Stockholm, June, 1966; p. 165.
Male Wistar strain rats (Royal Hart Farms) averaging approximately 250 grams in weight were fastened to rat boards in a supine position by means of canvas vests and limb ties. The femoral area was infiltrated subcutaneously with lidocaine and the iliac artery and vein were exposed and cannulated. Arterial blood pressure (systolic/diastolic) was recorded using a Statham P23 Bb pressure transducer-Offner dynograph system. To obtain a stable blood pressure, the animals were anethetized before use with pentobarbital, 30 mg./kg. of body weight intravenously, and also were given hexamethoxium bitartrate, 2 mg./kg. of body weight intravenously. The test compounds were prepared by ultrasonic dispersion in a Saline-Tween 80® vehicle. A constant intravenous dose volume of 0.5 ml. was administered and test doses ranged from 0.1 to 10.0 mg./kg. of body weight.
In Table V below are recorded the percent decrease from normal of mean arterial blood pressure induced by given doses of representative compounds of this invention.

In assay [6] the test system is basal gastric acid secretion. As to the kind of experiment: Inhibition of basal gastric acid secretion in the Acute Gastric Fistula Rat. The conditions noted are these: read-out: % Inhibition of Total Acid or Output; for inhibition in vivo at 0.63 mg/kg: intraduodenal 0.63 mg./kg.; for inhibition in vivo at 2.5 mg/kg: intraduodenal 2.5 mg./kg. It counts as in vivo, Female Sprague-Dawley rats.

The mark [7] stands for this setting: 1 h, oral dose 10 mg./kg., after 60 minutes.

Turning to `CCCC(C)C(O)C/C=C/[C@H]1[C@H](O)CC(=O)[C@@H]1C/C=C\CCCC(=O)O` (relative stereo) [9-oxo-11α,16-dihydroxy-17-methyl-5-cis,13-trans-prostadienoic acid], the inhibition in vivo at 10 mg/kg in assay [1] was determined as 93%; in assay [6] (setting [7]), 89%; in assay [6] (2 h, oral dose 10 mg./kg., after 120 minutes) it was 85%. The ED50 stood at 1.9 µg/kg in assay [2], 0.49 µg/kg in assay [3] and 3 µg/kg in assay [4]. Further, the “% Decrease in Mean Arterial Blood Pressure” value (from here on “% Decrease”) in assay [5] (intravenous 1.0 mg./kg.) was 42%.

Take `CCC/C=C/C(O)C/C=C/[C@H]1[C@H](O)CC(=O)[C@@H]1C/C=C\CCCC(=O)O` (relative stereo) [9-oxo-11α,16-dihydroxy-20-methyl-5-cis,13-trans,17-trans-prostatrienoic acid]: the inhibition in vivo at 10 mg/kg in assay [1] amounted to 44%. Moreover, the ED50 in assay [2] turned out to be 1.2 µg/kg; in assay [3] it was 2.2 µg/kg; in assay [4] it was 4 µg/kg.

Take `CCCCCC(O)C/C=C/[C@H]1[C@H](O)CC(=O)[C@@H]1C/C=C\CCCC(=O)O` (relative stereo) [9-oxo-11α,16-dihydroxy-20-methyl-5-cis,13-trans-prostadienoic acid]: in assay [1], the inhibition in vivo at 10 mg/kg is 42%. Besides, the figures for the ED50 in assay [2], in assay [3] and in assay [4] were 0.32 µg/kg, 0.29 µg/kg and 0.72 µg/kg, respectively.

For the compound `CCCCCC(/C=C/[C@H]1[C@H](O)CC(=O)[C@@H]1C/C=C\CCCC(=O)O)CO` (relative stereo) [9-oxo-11α-hydroxy-15-hydroxymethyl-5-cis,13-trans-prostadienoic acid], in assay [1], the inhibition in vivo at 10 mg/kg is 5%.

With `CCCCC(C/C=C/[C@H]1[C@H](OC2CCCCO2)CC(=O)[C@@H]1C/C=C\CCCC(=O)O)OC(c1ccccc1)(c1ccccc1)c1ccccc1` (relative stereo) [9-oxo-11α-tetrahydropyranyloxy-16-triphenylmethoxy-5-cis,13-trans-prostadienoic acid], in assay [1], the inhibition in vivo at 10 mg/kg was determined as 68%.

Consider `CC/C=C/C(O)C/C=C/[C@H]1C=CC(=O)[C@@H]1C/C=C\CCCC(=O)O` (relative stereo) [9-oxo-16-hydroxy-5-cis,10,13-trans,17-trans-prostatetraenoic acid], for which the figures for the inhibition in vivo at 10 mg/kg in assay [1] and in assay [6] (setting [7]) were 83% and 43%, respectively.

As to `CCCCC(O)C/C=C/[C@H]1C=CC(=O)[C@@H]1C/C=C\CCCC(=O)O` (relative stereo) [9-oxo-16-hydroxy-5-cis-10,13-trans-prostatrienoic acid], the inhibition in vivo at 10 mg/kg in assay [1] is 44%. Besides, the values for the ED50 in assay [2], in assay [3] and in assay [4] were 125 µg/kg, 81 µg/kg and 1540 µg/kg, respectively.

For the compound `CCC/C=C/C(O)C/C=C/[C@H]1C=CC(=O)[C@@H]1C/C=C\CCCC(=O)O` (relative stereo) [9-oxo-16-hydroxy-20-methyl-5-cis,10,13-trans,17-trans-prostatetraenoic acid], the values for the 50% effective dose (ED50) in assay [2], in assay [3] and in assay [4] were 625 µg/kg, 369 µg/kg and 2280 µg/kg, respectively.

Turning to `CCCC(C)C(O)C/C=C/[C@@H]1[C@@H](C/C=C\CCCC(=O)O)[C@@H](O)C[C@H]1O` (relative stereo) [9α,11α,16-trihydroxy-17-methyl-5-cis,13-trans-prostadienoic acid], the inhibition in vivo at 10 mg/kg in assay [1] was determined as 96%; in assay [6] (2 h, intraduodenal 10 mg./kg., after 120 minutes), 98%. Further, the inhibition in vivo at 0.63 mg/kg in assay [6] (1 h, after 60 minutes) is 55%; in assay [6] (2 h, after 120 minutes) it was 47%. The inhibition in vivo at 2.5 mg/kg is 66% in assay [6] (1 h, after 60 minutes) and 62% in assay [6] (2 h, after 120 minutes).

Consider `CCCCC(O)C/C=C/[C@@H]1[C@@H](C/C=C\CCCC(=O)O)[C@H](O)C[C@H]1O` (relative stereo) [9β,11α,16-trihydroxy-5-cis,13-trans-prostadienoic acid], for which the “% Decrease” value in assay [5] (intravenous 2.1 mg./kg.) amounted to 24%.

In the case of `CCCCCCCCCCOC(=O)CCC/C=C\C[C@H]1C(=O)C[C@@H](O)[C@@H]1/C=C/CC(O)CCCC` (relative stereo) [decyl 9-oxo-11α,16-dihydroxy-5-cis,13-trans-prostadienoate], the inhibition in vivo at 10 mg/kg in assay [1] was 60%.

Regarding `CCCCC(O)C/C=C/[C@H]1[C@H](O)CC(=O)[C@@H]1C/C=C\CCCC(=O)OC` (relative stereo) [methyl 9-oxo-11α,16-dihydroxy-5-cis,13-trans-prostadienoate], the inhibition in vivo at 10 mg/kg in assay [1] worked out at 100%. Moreover, the inhibition in vivo at 0.625 mg/kg in assay [6] (1 h, oral dose 0.625 mg./kg., after 60 minutes) was found to be 51%. For the same compound, in assay [6] (1 h, oral dose 1.25 mg./kg., after 60 minutes), the inhibition in vivo at 1.25 mg/kg came to 75%.

In the case of `CCCC(C)C(O)C/C=C/[C@H]1[C@H](O)CC(=O)[C@@H]1C/C=C\CCCC(=O)OC` (relative stereo) [methyl 9-oxo-11α,16-dihydroxy-17-methyl-5-cis,13-trans-prostadienoate], the inhibition in vivo at 10 mg/kg in assay [1] was found to be 76%. Further, in assay [5] (intravenous 1.2 mg./kg.), the “% Decrease” value is listed as 42%.
